Results: ChEMBL document CHEMBL1201862, “PubChem BioAssay data set” (2004)
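Values below derive from 48-hour exposures of cells grown in 96-well plates, with endpoints linearly interpolated between the two concentrations bracketing the appropriate inhibition level. GI50: concentration for 50% inhibition of growth.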 Calls of active or inactive are those of the source. Rule as the data show it: active = GI50 up to about 1.1 µM and inactive = higher.

Experiments:
Experiment in all cases: DTP human tumour cell line panel, 48 h
SF-295 = test system: SF-295
UO-31 = test system: UO-31
HCT-116 = test system: HCT-116
Malme-3M = test system: Malme-3M
SNB-19 = test system: SNB-19
SN12C = test system: SN12C
HT-29 = test system: HT-29
NCI-H460 = test system: NCI-H460
MDA-MB-435 = test system: MDA-MB-435
ACHN = test system: ACHN
M14 = test system: M14
UACC-62 = test system: UACC-62
NCI-H522 = test system: NCI-H522
OVCAR-4 = test system: OVCAR-4
BT-549 = test system: BT-549
SK-MEL-2 = test system: SK-MEL-2
A549 = test system: A549
HCC 2998 = test system: HCC 2998

Measured: GI50

c1cc(CNCCN2CCNCC2)ccn1
inactive: SF-295 > 100 µM | UO-31 > 100 µM | HCT-116 > 100 µM | Malme-3M > 100 µM | SNB-19 > 100 µM | SN12C > 100 µM | HT-29 > 100 µM | NCI-H460 > 100 µM | MDA-MB-435 > 100 µM | ACHN > 100 µM | M14 > 100 µM | UACC-62 > 100 µM | NCI-H522 > 100 µM | OVCAR-4 > 100 µM | BT-549 > 100 µM | SK-MEL-2 > 100 µM | A549 > 100 µM

COc1ccc2nc(N/N=C/c3sccc3C)cc(C)c2c1
inactive: SF-295 7.23 µM | UO-31 15.1 µM | HCT-116 11.6 µM | Malme-3M 17.5 µM | SNB-19 29 µM | SN12C 19.4 µM | HT-29 8.67 µM | NCI-H460 13.2 µM | HCC 2998 17.5 µM | MDA-MB-435 14.1 µM | ACHN 16.3 µM | M14 11.9 µM | UACC-62 13.1 µM | OVCAR-4 21.4 µM | BT-549 15.6 µM | SK-MEL-2 21.6 µM | A549 20.5 µM

CS/C(=N\Nc1cnc2ccccc2n1)NS(=O)(=O)c1cc(C)c(Cl)cc1Cl
inactive: SF-295 > 100 µM | UO-31 33.9 µM | HCT-116 > 100 µM | Malme-3M > 100 µM | SNB-19 > 100 µM | SN12C > 100 µM | HT-29 > 100 µM | NCI-H460 > 100 µM | HCC 2998 > 100 µM | MDA-MB-435 > 100 µM | ACHN > 100 µM | M14 > 100 µM | UACC-62 50.7 µM | NCI-H522 > 100 µM | OVCAR-4 > 100 µM | BT-549 > 100 µM | A549 > 100 µM

CN1C(=O)N/C(=C\c2ccc(S(=O)(=O)N/N=C/c3ccccc3)cc2)C1=O
inactive: SF-295 21.9 µM | UO-31 15.5 µM | HCT-116 23.8 µM | Malme-3M 45.5 µM | SNB-19 62.2 µM | SN12C 66.2 µM | HT-29 30.9 µM | NCI-H460 10.5 µM | HCC 2998 32.1 µM | MDA-MB-435 37 µM | ACHN 24.7 µM | M14 37 µM | UACC-62 28.9 µM | OVCAR-4 18.9 µM | BT-549 27.7 µM | SK-MEL-2 15 µM | A549 28.5 µM

Clc1ccc(/N=C/C=C/Nc2ccc(Cl)cn2)nc1
inactive: SF-295 16.3 µM | UO-31 15.6 µM | HCT-116 12.2 µM | Malme-3M 17.3 µM | SNB-19 16 µM | SN12C 14.5 µM | HT-29 7.8 µM | NCI-H460 16 µM | MDA-MB-435 14.5 µM | ACHN 12.6 µM | M14 16.4 µM | UACC-62 12.9 µM | NCI-H522 14 µM | OVCAR-4 7.52 µM | BT-549 17.2 µM | SK-MEL-2 15.6 µM | A549 14.5 µM

O=C(NNc1cn[nH]c(=O)n1)c1cccc2nc3ccccc3nc12
inactive: SF-295 30.2 µM | HCT-116 > 100 µM | Malme-3M 47.5 µM | SNB-19 74 µM | SN12C 60.1 µM | HT-29 > 100 µM | NCI-H460 > 100 µM | HCC 2998 25.1 µM | MDA-MB-435 > 100 µM | ACHN 23.3 µM | M14 > 100 µM | UACC-62 61.5 µM | OVCAR-4 68.2 µM | BT-549 > 100 µM | SK-MEL-2 34.9 µM | A549 > 100 µM

CSc1ncc2c(n1)C(C#N)C1Sc3ccccc3N1C2=O (stereo not given)
inactive: SF-295 36 µM | UO-31 > 100 µM | HCT-116 > 100 µM | Malme-3M > 100 µM | SNB-19 53.6 µM | SN12C > 100 µM | HT-29 > 100 µM | NCI-H460 > 100 µM | MDA-MB-435 > 100 µM | ACHN 59.4 µM | M14 > 100 µM | NCI-H522 62.2 µM | OVCAR-4 > 100 µM | BT-549 > 100 µM | A549 > 100 µM

S=C(N/N=C(\C(=N/NC(=S)N1CCCCC1)c1ccccn1)c1ccccn1)N1CCCCC1
inactive: SF-295 34.8 µM | UO-31 19.2 µM | HCT-116 15.5 µM | Malme-3M 17.3 µM | SNB-19 30.3 µM | HT-29 61 µM | NCI-H460 14 µM | HCC 2998 26.3 µM | MDA-MB-435 38.4 µM | ACHN 6.84 µM | M14 15.2 µM | UACC-62 26.5 µM | NCI-H522 9.18 µM | BT-549 78.2 µM | A549 31.1 µM

C[C@H](CC[C@@H](O)C(C)(C)O)[C@H]1CC[C@@]2(C)[C@@H]3CC=C4[C@@H](CC[C@H](O)C4(C)C)[C@]3(C)C(=O)C[C@]12C [BRYODULCOSIGENIN]
inactive: SF-295 > 50 µM | UO-31 34 µM | HCT-116 22 µM | Malme-3M > 50 µM | SNB-19 > 50 µM | SN12C 28.6 µM | HT-29 10.8 µM | NCI-H460 31.1 µM | MDA-MB-435 37.6 µM | ACHN > 50 µM | M14 29 µM | NCI-H522 31.7 µM | OVCAR-4 > 50 µM | BT-549 23.6 µM | SK-MEL-2 40.7 µM | A549 27.7 µM

O=C(O)c1cc(NC2=C(Cl)C(=O)c3c(O)ccc(O)c3C2=O)ccc1O
inactive: SF-295 > 10 µM | UO-31 > 10 µM | HCT-116 > 10 µM | Malme-3M > 10 µM | SNB-19 > 10 µM | SN12C > 10 µM | HT-29 > 10 µM | NCI-H460 > 10 µM | HCC 2998 > 10 µM | MDA-MB-435 > 10 µM | ACHN > 10 µM | M14 > 10 µM | UACC-62 > 10 µM | OVCAR-4 > 10 µM | BT-549 > 10 µM | A549 > 10 µM

OCC(O)COCn1nncc1Cn1ncc2c(SCc3ccccc3)ncnc21 (stereo not given)
inactive: SF-295 > 100 µM | UO-31 > 100 µM | HCT-116 > 100 µM | SNB-19 > 100 µM | SN12C > 100 µM | HT-29 > 100 µM | HCC 2998 > 100 µM | MDA-MB-435 > 100 µM | ACHN > 100 µM | M14 > 100 µM | UACC-62 > 100 µM | NCI-H522 8.89 µM | OVCAR-4 > 100 µM | BT-549 > 100 µM | SK-MEL-2 > 100 µM | A549 > 100 µM

O=[N+]([O-])c1ccc(C2c3c(O)nc(O)nc3Oc3nc(O)nc(O)c32)cc1
inactive: SF-295 > 100 µM | UO-31 > 100 µM | HCT-116 > 100 µM | SNB-19 > 100 µM | SN12C > 100 µM | HT-29 > 100 µM | NCI-H460 > 100 µM | MDA-MB-435 > 100 µM | ACHN > 100 µM | M14 > 100 µM | UACC-62 95.3 µM | NCI-H522 17.9 µM | OVCAR-4 > 100 µM | BT-549 > 100 µM | SK-MEL-2 > 100 µM | A549 > 100 µM
